For 35 compounds, inhibition results are on record in ChEMBL document CHEMBL4480390, “Cink4T, a quinazolinone-based dual inhibitor of Cdk4 and tubulin polymerization, identified via ligand-based virtual screening, for efficient anticancer therapy” (Eur J Med Chem, 2019).

Molecules are shown by their SMILES.

In general, inhibition refers to the drop in the measured response relative to a control, in per cent.

The assay deals with Cyclin-dependent kinase 4/cyclin D1 (Homo sapiens) (UniProt P11802+P24385). The assay is described as follows: Inhibition of recombinant human N-terminal GST-tagged CDK4 (S4 to E303 residues)/Cyclin D1 (Q4 to I295 residues) expressed in sf9 cells at 10 uM using RBCTF as substrate measured after 1 hr by ADP-glo luminescence assay relative to control. In general terms: In ADP-Glo the light output rises with the ADP produced.
On to `COc1ccc(NC(=O)COc2cc(-c3nc4ccccc4c(=O)[nH]3)ccc2OC)cc1`, for which the inhibition amounted to 14%.
For the compound `COc1cc(-c2nc3ccccc3c(=O)[nH]2)ccc1OCC(=O)Nc1ccc(F)cc1`, the inhibition worked out at 7%.
On to `COc1ccc(-c2nc3ccccc3c(=O)[nH]2)cc1OCC(=O)Nc1ccccc1Cl`, for which the inhibition came out at 41%.
Turning to `COc1ccc(-c2nc3ccccc3c(=O)[nH]2)cc1OCC(=O)Nc1ccc([N+](=O)[O-])cc1`, the inhibition was 1%.
Turning to `C#CCOc1ccc(-c2nc3ccccc3c(=O)[nH]2)cc1OC`, the inhibition turned out to be 38%.
Consider `COc1ccc(-c2nc3ccccc3c(=O)[nH]2)cc1Oc1ccc(F)cc1`, for which the inhibition came to 46%.
To `O=C(COc1ccc(-c2nc3ccccc3c(=O)[nH]2)cc1)NC1CCCCC1` belongs 20%; to `O=c1[nH]c(-c2ccc(OCc3ccc(F)cc3F)cc2)nc2ccccc12`, 30%.
Take `O=c1[nH]c(-c2cccc(O)c2)nc2ccccc12`: the inhibition is -6%.
To `CCOc1ccc(NC(=O)COc2ccc(-c3nc4ccccc4c(=O)[nH]3)cc2OC)cc1` belongs 0%; to `COc1ccc(-c2nc3ccccc3c(=O)[nH]2)cc1O`, 0%.
On to `Cc1ccc(NC(=O)COc2ccc(-c3nc4ccccc4c(=O)[nH]3)cc2)cc1`, for which the inhibition came out at 5%.
As to `O=c1[nH]c(-c2ccc([N+](=O)[O-])cc2)nc2ccccc12`, the inhibition is 0%.
Consider `COc1cc(-c2nc3ccccc3c(=O)[nH]2)ccc1OCc1ccc(F)cc1F`, for which the inhibition was found to be 36%.
For the compound `O=c1[nH]c(-c2ccc(Br)cc2)nc2ccccc12`, the inhibition was 31%.
In the case of `CCCCNC(=O)COc1ccc(-c2nc3ccccc3c(=O)[nH]2)cc1OC`, the inhibition is 48%.
In the case of `O=C(COc1ccc(-c2nc3ccccc3c(=O)[nH]2)cc1)Nc1ccc2ccccc2c1`, the inhibition was found to be 0%.
In the case of `COc1ccc(NC(=O)COc2ccc(-c3nc4ccccc4c(=O)[nH]3)cc2OC)cc1`, the inhibition worked out at 41%.
With `CS(=O)(=O)Oc1ccc(-c2nc3ccccc3c(=O)[nH]2)cc1`, the inhibition is 42%.
As for `O=C(COc1ccc(-c2nc3ccccc3c(=O)[nH]2)cc1)Nc1ccc([N+](=O)[O-])cc1`, the figure is 26%.
Consider `O=C(COc1ccc(-c2nc3ccccc3c(=O)[nH]2)cc1)Nc1cccc2ccccc12`, for which the inhibition came out at 5%.
To `CCOc1ccc(NC(=O)COc2cc(-c3nc4ccccc4c(=O)[nH]3)ccc2OC)cc1` belongs 3%; to `COc1cc(-c2nc3ccccc3c(=O)[nH]2)ccc1Oc1ccc(Cl)cc1Cl`, 55%; to `COc1ccc(-c2nc3ccccc3c(=O)[nH]2)cc1OCC(=O)Nc1ccccc1`, 20%.
To `O=c1[nH]c(-c2ccc(O)cc2)nc2ccccc12` belongs 30%.
As to `O=c1[nH]c(-c2ccc(Oc3ccc(F)cc3)cc2)nc2ccccc12`, the inhibition was 30%.
To `O=C(COc1ccc(-c2nc3ccccc3c(=O)[nH]2)cc1)Nc1ccccc1` belongs 45%; to `COc1cccc(NC(=O)COc2cc(-c3nc4ccccc4c(=O)[nH]3)ccc2OC)c1`, 5%.
Turning to `COc1ccccc1NC(=O)COc1cc(-c2nc3ccccc3c(=O)[nH]2)ccc1OC`, the inhibition is 21%.
For the compound `COc1cc(-c2nc3ccccc3c(=O)[nH]2)ccc1O`, the inhibition was found to be 39%.
As for `COc1ccc(-c2nc3ccccc3c(=O)[nH]2)cc1OCC(=O)Nc1ccccc1C`, the inhibition was -5%.
On to `Oc1nc(-c2cccnc2)nc2ccccc12`, for which the inhibition is 36%.
With `COc1cccc(NC(=O)COc2ccc(-c3nc4ccccc4c(=O)[nH]3)cc2OC)c1`, the inhibition was determined as 16%.
As to `COc1ccc(-c2nc3ccccc3c(=O)[nH]2)cc1OCc1ccc(F)cc1F`, the inhibition stood at 45%.
For the compound `O=C(COc1ccc(-c2nc3ccccc3c(=O)[nH]2)cc1O)Nc1ccc(Cl)cc1`, the inhibition amounted to 0%.
